Common to all, as to assay type: cell-based
Test [1] deals with primary pituitary cultures. Briefly: G418 selection: killing of non-transfected human pituitary cells. The protocol:
Dispersed and panned cells human pituitary cells were plated at 200,000 to 300,000 cells per ml in 6-well plates (Falcon/Becton Dickinson, Franklin Lakes, N.J.) and grown until 30-50% confluent. Transfection was performed using cationic lipids to deliver plasmids containing either the SV40 large T antigen or the v-myc oncogene into primary-cultured pituitary cells. Plasmids without oncogenes were used as controls for transfection. Wells transfected with control plasmid slightly outlived primary cell cultures due to the presence of the gene coding for G418 resistance but died after 2 to 3 weeks or a single passage of the cells. Using Lipfectin®, we transfected panned pituitary cells with either pSV3neo (Southern, P J and Berg, P J, 1982) or pLXSN-v-myc, constructed as described below. The concentration of DNA was kept constant (typically […]) in each well while the amount of cationic lipid increased from 0-20 μl. […] The formation of colonies in the presence of G418 was monitored for a varying number of weeks.
Primary cultured human pituitary cells transfected with pSV3neo were incubated for an additional 48 to 60 hours in Gc medium with 10^−10 M estradiol and nonessential amino acids before G418 selection. […] Medium was replaced every 3 to 4 days and the formation of individual colonies was monitored visually. […]

Test [2] concerns primary cultured human pituitary cells. Briefly: Pituitary hormone secretion from primary cultures of panned human pituitary cells. Set-up: key to Effect on LH secretion / Effect on PRL secretion / Effect on FSH secretion / Effect on GH secretion: NE: no effect detected; +: stimulatory; −: inhibitory. Particulars: for Optimum condition (concentration) for GH secretion / Optimum condition (concentration) for PRL secretion / Optimum condition (concentration) for FSH secretion / Optimum condition (concentration) for LH secretion: Gc medium. The protocol:
Fetal human pituitary glands were obtained from Anatomical Gift Foundation (White Oak, Ga.) or Advanced Bioscience Resources, (Alameda, Calif.). Pituitary glands were stored in approximately 20 mls of RPMI culture media at 4° C. and processed within 24 hours of dissection. The gestational age ranged from 19 to 24 weeks. The following dispersion procedure was performed using sterile materials and technique throughout. Tissue was rinsed in 30 mls modified Kreb's Ringer solution, supplemented with 5 g/L bovine serum albumin (BSA) and nonessential amino acids. The tissue was then transferred to a glass microscope slide, and finely minced using scapels. Minced tissue was suspended in 2 to 2.25 mls modified Kreb's Ringer containing 1 mg/ml collagenase (Sigma Chemical Co., St. Louis, Mo.). The mixture was incubated at 37° C. with rotation at 250 rpm for 60 minutes. The dispersed cells were washed in 20 mls DMEM/F12 medium and centrifuged (5 minutes at 428×g). The supernatant was aspirated leaving 2-4 mls, and two additional washes were performed using 10 mls DMEM/F12. Cells were counted using a hemacytometer (Fresney, I R, 1987). The total number of cells ranged from 100,000 to 2 million per gland, with greater cell numbers in older pituitary glands. The mixture was centrifuged (5 minutes at 428×g). The pellet was then resuspended in culture media, as described below, at approximately 10^5 cells/ml and plated into multi-well, styrene tissue culture plates, incubated at 37° C. in humidified air supplemented with 5% CO2.
Primary culture conditions necessary for the proliferation of endocrine cells of the pituitary gland were investigated. The present invention requires cellular proliferation of target cells for integration of foreign DNA into the host cell genome and induction of immortalization. The pituitary gland is composed of numerous cell types including fibroblasts, follicular stellate cells, endocrine epithelial cells (gonadotropes, thyrotropes, somatotropes, lactotropes, melanotropes, corticotropes) and endothelial cells from blood vessels. Since the hormone-producing endocrine cells are one target of the present invention, we investigated methods to enrich the population of endocrine cells. […] Primary cultures were panned by initially plating the dispersed pituicytes in a single 35 mm tissue culture dish at about 5×10^4 cells/ml. After 16-24 hours, less adherent cells were removed from these cultures by repetitive pipetting of media (approximately 10 times). These cells were pelleted by centrifugation (5 minutes at 428×g) and replated at 10^5 cells/ml.
To monitor the viability and/or secretory capability of the hormone-producing endocrine cells, we measured secretion of pituitary hormones from cultures of panned pituitary cells. The level of FSH, LH, prolactin and TSH in culture media was determined using an automated chemiluminescent-based immunoanalyzer, ACS: 180™ (Chiron Diagnostics, Inc., Norwood, Mass.). Growth hormone was determined using an immunoradiometric assay (Nichols Institute, San Juan Capistrano, Calif.). Culture media was harvested on Mondays and Fridays from growing cultures for several weeks. These cultures were maintained in 48-well plates (Falcon/Becton Dickinson, Franklin Lakes, N.J.), with each well containing 1 ml of media. The majority of the media were carefully removed to avoid uptake of cells and transferred to 12×75 mm tubes for analysis. Cells were fed with an equal volume of fresh medium at the same time points. Background levels of GH in various media were insignificant (<0.1 ng/ml). Each condition was tested in duplicate and graphed values are the mean hormone concentration +/− standard deviation.
Similar types of experiments were done to optimize cell culture conditions and components for secretion of GH, FSH, LH, and prolactin from primary cultured human pituitary cells. […]

The test system of test [3] is immortalized bovine pituitary cells. Briefly: Bovine GH secretion into conditioned media (immunoblot). Particulars: 10 μM, 3 hours in media without FBS, passage 2-10. How it is done: Additional experiments were performed using highly sensitive immunological methods to detect bovine growth hormone within live, individual cells in the immortalized cultures. Bovine GH-specific monoclonal antibodies were obtained from Biogenesis, Inc. (Catalog No. 4750-0939) and OEM Concepts (Toms River, N.J.). […] A cellular blotting method was used to monitor bovine GH secretion from pituitary cells grown in culture, as described by Gibson-D'Ambrosio, et al. (1995). By localizing bovine GH within cultures, it was possible to obtain enriched cultures of bovine somatotropes prior to transfection with pSV3neo. […] These cell lines are indicated in Table 2 with the designation bGH, e.g., bGH C5.
To test for secretion of bovine GH from immortalized bovine cell line, cultures of passage 2-10 were grown to confluence in FBS-containing media, washed three times with PBS and incubated for 3 hours in media without FBS. Duplicate wells contained 10 μM bovine growth hormone releasing factor (GHRF).
In general terms: In western blotting, separated proteins are transferred to a membrane and probed.

Where [4] appears, read: primary human pituitary cultures.
The mark [5] stands for this setting: initial treatment, in the presence of cortisone and estrogen.

No end group written: not given here.

This is an account of results in patent US6458593B1, “Immortalized cell lines and methods of making the same” (Vitro Diagnostics, Inc., priority 1999, dated 2002).

Compound `CN[C@@H]1[C@@H](O)[C@@H](O[C@@H]2[C@@H](O)[C@H](O[C@H]3O[C@H]([C@@H](C)O)[C@@H](O)[C@H](O)[C@H]3N)[C@@H](N)C[C@H]2N)OC[C@]1(C)O` [G418] registered a Non-transfected cells killed in test [1] (250 μg/ml, final dose) of 100%. Further, the “Concentration sufficient to kill all primary pituitary cultures tested” value in test [1] (human primary pituitary cultures) was 150 µg/mL.
For the compound “FGF-basic: basic fibroblast growth factor, growth factor addition to the medium”, the “Effect on GH release” value in test [2] (0.1 ng/ml, preliminary evidence) is “potentiates”. Besides, in test [2] (setting [4]), the “Effect on FSH secretion” value is recorded as “NE”, the “Effect on LH secretion” value is “NE”, the “Effect on PRL secretion” value was “NE” and the “Optimum condition (concentration) for GH secretion” value was determined as 0.1 ng/mL.
With “GHRF: bovine growth hormone releasing factor (YADAIFTNSYRKVLGQLSARKLLQDIMNRQQGERNQEQGAKVRL; ends and bridges not checked; UniProt P63292 31-74, looked up)”, the “Effect on amount of bovine GH secreted” value in test [3] is listed as “appeared to be potentiated”.
In the case of `C[C@]12CC[C@@H]3c4ccc(O)cc4CC[C@H]3[C@@H]1CC[C@@H]2O` [17β-Estradiol], the “Effect on GH secretion” value in test [2] (10^−10 M in medium, previous experiments) is reported as “stimulatory effect”. Besides, in test [2] (setting [4]), the “Effect on FSH secretion” value is “NE”, the “Effect on LH secretion” value is on record as “NE”, the “Optimum condition (concentration) for GH secretion” value was 100 pM and the “Optimum condition (concentration) for PRL secretion” value came out at 100 pM.
Consider “GnRH: gonadotropin releasing hormone, a hypothalamic releasing hormone (QHWSYGLRPG; ends and bridges not checked; UniProt P01148 24-33, looked up)”, for which, in test [2] (setting [5]), the “Effect on FSH secretion” value was “significantly potentiated” and the “Effect on LH secretion” value is listed as “significantly potentiated”. Also, in test [2] (setting [4]), the “Effect on GH secretion” value is “NE”, the “Effect on PRL secretion” value was “NE”, the “Optimum condition (concentration) for FSH secretion” value is listed as 10^−10 M and the “Optimum condition (concentration) for LH secretion” value is on record as 10^−7 to 10^−10M.
In the case of `C[C@]12CCC(=O)C=C1CC[C@@H]1[C@@H]2[C@@H](O)C[C@@]2(C)[C@H]1CC[C@]2(O)C(=O)CO` [Hydrocortisone], in test [2] (setting [4]), the “Effect on LH secretion” value was “NE”, the “Effect on PRL secretion” value is “NE”, the “Optimum condition (concentration) for FSH secretion” value came to 5e-08 M and the “Optimum condition (concentration) for GH secretion” value worked out at 50000 pM.
Take `N[C@@H](Cc1cc(I)c(Oc2ccc(O)c(I)c2)c(I)c1)C(=O)O` [T3, 3,5,3′ triiodothyronine]: in test [2] (10^−10 M), the “Effect on TSH release” value is “strongly inhibitory”, the “Effect on secretion of GH” value is “beneficial”, the “Effect on secretion of LH” value is recorded as “beneficial” and the “Effect on secretion of prolactin” value was “beneficial”. In test [2] (setting [4]), the “Effect on FSH secretion” value is “NE”, the “Optimum condition (concentration) for GH secretion” value is 100 pM, the “Optimum condition (concentration) for LH secretion” value was found to be 1e-10 M and the “Optimum condition (concentration) for PRL secretion” value was determined as 100 pM.
